This is an account of results in PMC9820430, “New Affordable Methods for Large-Scale Isolation of Major Olive Secoiridoids and Systematic Comparative Study of Their Antiproliferative/Cytotoxic Effect on Multiple Cancer Cell Lines of Different Cancer Origins” (International Journal of Molecular Sciences, 2022).

Like-named read-outs stand apart in the source and are kept apart here.

The test system of series [1] is MCF-7. The series is described as follows: EdU incorporation cell proliferation assay, 24 h. Conditions: for % EdU +ve ± SE (S-phase cells): 24 h treatment at EC50 concentration. It counts as cell-based, human.
Protocol: For this purpose, ten cancer cell lines (i.e., MDA-MB 231, SK-BR-3, MCF-7, A2058, SK-MEL-28, AGS, HepG-2, PANC-1, H1299 and Hela) originating from breast, melanoma, stomach, hepatic, pancreatic, lung and cervical tumors were analyzed in parallel with control samples (i.e., the same cells treated only with 0.2% (v/v) DMSO). […] Subsequently, the treated cells were allowed to incorporate 5-ethynyl-2′-deoxyuridine (EdU) into replicating DNA according to the protocol described in detail in the Experimental Section. […] In this study, after EdU incorporation, the nuclei of the entire cell population were stained with Hoechst and imaged by confocal microscopy (Experimental Section). EdU-positive nuclei, marked by green FL, as well as the total number of nuclei, marked by blue FL, were enumerated by applying the Icy image analysis algorithm on the digital images acquired by confocal microscopy.
Human cancer cells were plated onto sterile glass coverslips (10-mm diameter, 5161063, ThermoFisher Scientific, Waltham, MA, USA) in 24-well tissue culture plates, at a density 5 times the density of cells seeded in 96-well plate and at a final medium volume of 500 μL. In order to obtain homogeneous plating, 250 μL of the medium was added directly to the wells already containing coverslips. Using a tip perpendicularly, coverslips were pressed in order to ensure their attachment to the bottom of the well. The cells were then seeded by adding 250 μL of single-cell suspension drop by drop following a cross path. Immediately after seeding, the plate was shaken back and forth at least ten times to achieve homogeneous plating. The cells were allowed to adhere overnight (~16 h) at 37 °C and 5% (v/v) CO2. The next day, a volume of 500 μL fresh medium was added to each well and the treatment with OOPs was initiated by adding directly to the wells 2 μL of OOPs from the 500× stock in DMSO and immediately mixed afterward by pipetting. […] Control cells were prepared under the same experimental conditions using DMSO instead of the OOPs’ solutions in DMSO at the same final concentration (0.2% (v/v) DMSO). […]
Series [2] has as its system three breast cancer cell lines (MDA-MB-231, SK-BR-3 and MCF-7). Kind of series: ATP-based luminescence cell viability assay, breast panel. Also on record: species or system human. Conditions: Homo sapiens; MDA-MB-231, SK-BR-3 and MCF-7; 72 h. On the procedure: The antiproliferative/cytotoxic effects of the selected OOPs on each cell line were assessed by measuring the cellular ATP levels after 72 h treatments using an ATP-based luminescence assay. This assay, initially developed as a tumor chemosensitivity assay, has shown considerable promise as a general in vitro toxicity assay due to its high sensitivity that allows the detection of a small number of cells. Consequently, it can be applied to both cancer cell lines and primary tissue cells. […] The EC50 values were calculated by nonlinear regression (curve fit) using a sigmoidal dose–response equation (Figure 2A and Figure S2).
The calculated EC50 values ranged between 9.1–100 μΜ (Table 1). The bioactivity of the oleocanthalic acid (7), studied here for the first time for its antiproliferative/cytotoxic activity, was initially evaluated systematically in the three breast cancer cell lines using a concentration range of 10–100 μM. In all cases, the viability measured was ≥80%, predicting EC50 values > 100 μΜ. […] For this reason, oleocanthalic acid (7) was excluded from the rest of this study.
The OOPs tested in this study were first dissolved in an appropriate DMSO volume such as to prepare a final stock solution of 50 mM, which was further used to prepare various compound concentrations in DMSO-based solutions. The final DMSO concentration in the cell culture was maintained constant in all treated groups of any given experiment and never exceeded the value of 0.2% (v/v). For the treatment experiments, cells were plated in 96-well culture plates, in 100 μL of complete medium at a seeding density of 5000–10,000 cells/well—depending on cells’ size and doubling time—and were allowed to adhere overnight (~16 h). The next day, 150 μL of complete medium was added to each well and the cells were treated with various concentrations of OOPs. Each concentration was tested in triplicate and was repeated 2–3 times. To prepare the final concentration solutions, 0.5 μL of a 500× stock of each tested compound in DMSO was added directly into each well in a final volume of 250 μL culture medium and was gently mixed by pipetting. Control wells were prepared under the same experimental conditions by adding only DMSO at a final concentration of 0.2% (v/v). Compounds were not renewed during the entire period of cell exposure. All cells were cultured at 37 °C in a 5% (v/v) CO2 for 24, 48 or 72 h.
Briefly, after the treatment with OOPs, the adapted medium was removed from the dish wells and the cells were washed twice with medium without FBS. Then, the C-lysis (LT27-076) was diluted in PBS (1:2) and a volume of 50 μL was added to each well. […] Cell viability was quantified by measuring luminescence using a multi-mode microplate reader Safire^2 Tecan (software Magellan V6.00 STD.2PC WIN.20000/XP).

The test system of series [3] is MCF-7. Conditions: cited from earlier work.
The subject of series [4] is MCF-7/TR (tamoxifen-resistant). Also on record: method as in Mazzei et al. (2020) 27. Conditions: ref Mazzei et al. (2020) 27; cited from earlier work.
The test system of another series is SK-BR-3 cells. Kind of series: Deactivation in culture medium (direct addition vs pre-incubation), ATP assay 48 h. The series is classed as cell-based, human. Conditions: 20 and 40 μM, 15 min pre-incubation in culture medium vs direct addition. On the procedure: The other OOPs tested were not affected similarly (Figure S3B). […] It was therefore decided for all the experiments presented in this manuscript and the assays performed to calculate the EC50 values to add all the OOPs tested directly to the culture medium.
Viable cell numbers were determined using the ATP-based luminescence assay after 48 h of treatment. The compound was added to the cells either directly or after incubation with the culture medium for 15 min. The results presented are from four independent experiments performed in triplicate. Bar graphs represent the mean cell count ± SE in each treatment group normalized to the control group (i.e., cells treated only with 0.2% (v/v) DMSO). * p < 0.05; ** p ≤ 0.01 (t-test) comparing the two different treatment methods.

The subject of another series is Caco-2 cells. Conditions: cited from earlier work.
The next series relates to Hela cells. Conditions: cited from earlier work.

On to `COC(=O)C1=COC(C)[C@@H](C=O)[C@@H]1CC(=O)OCCc1ccc(O)c(O)c1` (mixture of isomers) [3a,b, oleuropein aglycone], for which, in the series on MCF-7 [1] (24 h at EC50, normalized with the control), the “% Inhibition ± SE of cell proliferation” value worked out at 19.3 ± 0.5%. In addition, in the series with MCF-7 [1], the “% EdU +ve ± SE (S-phase cells)” value is 21.1 ± 2.0%. The EC50 in series [2] was 17.7 to 32.2 µM; in the series with MCF-7 [3] (five days of treatment, ref Menendez et al. (2007) 17, read-out: concentration reducing cell viability by 50%) it was more than 100 µM; in series [4], 70 µM.
In the case of `C/C=C(/C=O)[C@@H](CC=O)CC(=O)OCCc1ccc(O)cc1` [compound 1, oleocanthal], the “% EdU +ve ± SE (S-phase cells)” value with MCF-7 [1] is recorded as 21.6 ± 4.0%. For the same compound, the EC50 in series [2] is 10.5 to 24.6 µM; in the series with MCF-7 [3] (48 or 72 h, different culture conditions, read-out: EC50), 18 to 40 µM; with Caco-2 cells, more than 150 µM; in the series with Hela cells, more than 150 µM. For the same compound, the “stability/deactivation in the cell culture medium” value with SK-BR-3 cells is recorded as “partially deactivated”.
